Legend:
Test in all cases: combination Emax (second highest fraction inhibited in the dose matrix, 72 h); higher = more inhibition; extreme values may be limits of the assay
[1] = test system: GRANTA-519 (B-Cell Non-Hodgkin's Lymphoma)
How it was run: (§1)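 Cell lines grown in DMEM/F12 or RPMI with 10% FBS were plated in 1536-well plates and held 24 hours at 37°C, 5% CO2 before 72 hours of exposure to two-drug dose matrices, with DMSO typically at 0.2%. CellTiter-Glo 2.0 luminescence gave viability, which was converted to inhibition. Vehicle wells were set to 0 and blank wells to 1. Combination Emax is the second-highest inhibition in the matrix, and Bliss excess is the observed combination effect minus the expected EA + EB − EA·EB, where EA and EB are the single-agent effects.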

[2] = test system: NCI-H1648 (Lung Adenocarcinoma)
How it was run: as §1

[3] = test system: ATN-1 (T-Lymphoblastic Leukemia)
How it was run: as §1

[4] = test system: NCI-H1048 (Small Cell Lung Carcinoma)
How it was run: as §1

[5] = test system: BT-474 (Breast Carcinoma)
How it was run: as §1

[6] = test system: HT-1197 (Bladder Carcinoma)
How it was run: as §1

[7] = test system: SW1463 (Colorectal Carcinoma)
How it was run: as §1

[8] = test system: MDA-MB-175-VII (Breast Carcinoma)
How it was run: as §1

[9] = test system: NCI-H2170 (Squamous Cell Lung Carcinoma)
How it was run: as §1

[10] = test system: BC-1 (B-Cell Non-Hodgkin's Lymphoma)
How it was run: as §1

[11] = test system: SBC-5 (Small Cell Lung Carcinoma)
How it was run: as §1

[12] = test system: C2BBe1 (Colorectal Carcinoma)
How it was run: as §1

[13] = test system: SBC-3 (Small Cell Lung Carcinoma)
How it was run: as §1

[14] = test system: COR-L105 (Lung Adenocarcinoma)
How it was run: as §1

[15] = test system: OCI-M1 (Acute Myeloid Leukemia)
How it was run: as §1

[16] = test system: MRK-nu-1 (Breast Carcinoma)
How it was run: as §1

GCIY (Gastric Carcinoma) = test system: GCIY (Gastric Carcinoma)
How it was run: as §1

[17] = test system: NCI-H1975 (Lung Adenocarcinoma)
How it was run: as §1

[18] = test system: HT-3 (Cervical Carcinoma)
How it was run: as §1

[19] = test system: NCI-H1435 (Non-Small Cell Lung Carcinoma)
How it was run: as §1

Structure (SMILES) | combination Emax [1] | combination Emax [2] | combination Emax [3] | combination Emax [4] | combination Emax [5] | combination Emax [6] | combination Emax [7] | combination Emax [8] | combination Emax [9] | combination Emax [10] | combination Emax [11] | combination Emax [12] | combination Emax [13] | combination Emax [14] | combination Emax [15] | combination Emax [16] | combination Emax (GCIY (Gastric Carcinoma)) | combination Emax [17] | combination Emax [18] | combination Emax [19]
CC1(C)CCC(CN2CCN(c3ccc(C(=O)NS(=O)(=O)c4ccc(NCC5CCOCC5)c([N+](=O)[O-])c4)c(Oc4cnc5[nH]ccc5c4)c3)CC2)=C(c2ccc(Cl)cc2)C1 [Venetoclax] + CCN(CCO)CCCOc1ccc2c(Nc3cc(CC(=O)Nc4cccc(F)c4)[nH]n3)ncnc2c1 [AZD2811] (first compound max 1 µM, 7x7, partner max 1 µM) | 0.925 | 0.201 | 0.866 | 0.73 | 0.218 | 0.221 | 0.157 | 0.23 | 0.545 | 0.674 | 0.266 | 0.214 | 0.766 | 0.211 | 0.276 | 0.612 | 0.386 | 0.216 | 0.178 | 0.161
CC1(C)CCC(CN2CCN(c3ccc(C(=O)NS(=O)(=O)c4ccc(NCC5CCOCC5)c([N+](=O)[O-])c4)c(Oc4cnc5[nH]ccc5c4)c3)CC2)=C(c2ccc(Cl)cc2)C1 [Venetoclax] + Cn1cnc2c(F)c(Nc3ccc(Br)cc3Cl)c(C(=O)NOCCO)cc21 [Selumetinib] (first compound max 1 µM, 7x7, partner max 3 µM) | 0.323 | 0.496 | 0.137 | 0.153 | 0.0915 | 0.254 | 0.352 | 0.255 | 0.107 | 0.408 | 0.18 | 0.329 | 0.605 | 0.362 | 0.483 | 0.235 | 0.514 | 0.28 | 0.118 | 0.156
C=CCn1c(=O)c2cnc(Nc3ccc(N4CCN(C)CC4)cc3)nc2n1-c1cccc(C(C)(C)O)n1 [AZD1775] + C[C@@H]1COCCN1C2=NC(=NC(=C2)C3(CC3)[S@](=N)(=O)C)C4=C5C=CNC5=NC=C4 [AZD6738] (first compound max 1 µM, partner max 10 µM) | 0.826 | 0.833 | 1 | 0.886 | 0.316 | 0.592 | 0.822 | 0.405 | – | 1 | 0.929 | 0.486 | 0.889 | 0.595 | 0.969 | 0.802 | 0.947 | 0.477 | 0.832 | 0.398
CS(=O)(=O)CCNCc1ccc(-c2ccc3ncnc(Nc4ccc(OCc5cccc(F)c5)c(Cl)c4)c3c2)o1 [Lapatinib] + NC1(c2ccc(-c3nc4ccn5c(=O)[nH]nc5c4cc3-c3ccccc3)cc2)CCC1 [MK-2206] (first compound max 10 µM, 7x7, partner max 10 µM) | – | 0.99 | – | – | – | – | 0.868 | 1 | – | 0.957 | 0.853 | – | 0.917 | 0.825 | 0.844 | 0.361 | 0.934 | – | – | 0.665
Cc1c2c(nn1C)CSCc1cc(n(C)n1)CSc1cc(c3ccccc3c1)OCCCc1c(C(=O)O)n(C)c3c-2c(Cl)ccc13 [AZD5991] + Cn1cnc2c(F)c(Nc3ccc(Br)cc3Cl)c(C(=O)NOCCO)cc21 [Selumetinib] (first compound max 1 µM, 7x7, partner max 3 µM) | 0.106 | 0.844 | 0.888 | 0.971 | 0.246 | 0.321 | 0.547 | – | 0.184 | 1 | 0.415 | 0.425 | 0.225 | 0.463 | 0.618 | 1 | 0.465 | 0.816 | 0.789 | 0.26
CC(=O)c1c(C)c2cnc(Nc3ccc(N4CCNCC4)cn3)nc2n(C2CCCC2)c1=O [Palbociclib] + CN(CC[C@H](CSC1=CC=CC=C1)NC2=C(C=C(C=C2)S(=O)(=O)NC(=O)C3=CC=C(C=C3)N4CCC(CC4)[C@H](C5=CC=CC=C5C6=CC=C(C=C6)Cl)O)S(=O)(=O)C(F)(F)F)CCO [AZD4320] (first compound max 10 µM, 7x7, partner max 1 µM) | 0.903 | – | 0.772 | 0.677 | 0.124 | 0.338 | – | – | 0.8 | – | 0.251 | 0.318 | – | – | 0.994 | – | – | 0.471 | 0.0805 | –
COc1nnc2ccc(N3CCC(c4ccc(OCCN5CCN(C)C(=O)[C@H]5C)cc4)CC3)nn12 [AZD5153] + CN(CC[C@H](CSC1=CC=CC=C1)NC2=C(C=C(C=C2)S(=O)(=O)NC(=O)C3=CC=C(C=C3)N4CCC(CC4)[C@H](C5=CC=CC=C5C6=CC=C(C=C6)Cl)O)S(=O)(=O)C(F)(F)F)CCO [AZD4320] (first compound max 1 µM, 7x7, partner max 1 µM) | 0.986 | – | 0.718 | 0.801 | 0.531 | 0.845 | – | – | 0.838 | – | 0.534 | 0.611 | – | – | 1 | – | – | 0.643 | 0.3 | –
CCc1c2c(nc3ccc(O)cc13)-c1cc3c(c(=O)n1C2)COC(=O)[C@]3(O)CC [SN-38] + O=C(c1cc(Cc2n[nH]c(=O)c3ccccc23)ccc1F)N1CCN(C(=O)C2CC2)CC1 [Olaparib] (first compound max 0.3 µM, 7x7, partner max 10 µM) | – | 0.915 | 1 | 0.987 | – | 0.35 | 0.473 | 0.649 | 0.969 | 1 | – | – | 0.979 | 0.401 | – | 0.868 | 0.779 | 0.545 | 0.979 | 0.326
O=C(c1cc(Cc2n[nH]c(=O)c3ccccc23)ccc1F)N1CCN(C(=O)C2CC2)CC1 [Olaparib] + CN(CC[C@H](CSC1=CC=CC=C1)NC2=C(C=C(C=C2)S(=O)(=O)NC(=O)C3=CC=C(C=C3)N4CCC(CC4)[C@H](C5=CC=CC=C5C6=CC=C(C=C6)Cl)O)S(=O)(=O)C(F)(F)F)CCO [AZD4320] (first compound max 10 µM, 7x7, partner max 1 µM) | – | 0.359 | – | – | – | – | 0.333 | 0.389 | – | 0.348 | – | – | 0.842 | 0.219 | – | 0.395 | 0.643 | – | – | 0.729
Cc1c2c(nn1C)CSCc1cc(n(C)n1)CSc1cc(c3ccccc3c1)OCCCc1c(C(=O)O)n(C)c3c-2c(Cl)ccc13 [AZD5991] + CC(=O)O[C@H]1C(=O)[C@@]2(C)[C@H]([C@H](OC(=O)c3ccccc3)[C@]3(O)C[C@H](OC(=O)[C@H](O)[C@@H](NC(=O)c4ccccc4)c4ccccc4)C(C)=C1C3(C)C)[C@]1(OC(C)=O)CO[C@@H]1C[C@@H]2O [Paclitaxel] (first compound max 1 µM, 7x7, partner max 3 µM) | – | 0.929 | – | – | – | – | 0.527 | 0.505 | – | 1 | – | – | 0.952 | 0.183 | – | 1 | 0.686 | – | – | 0.219
C[C@@H](Oc1cc(-c2cnn(C3CCNCC3)c2)cnc1N)c1c(Cl)ccc(F)c1Cl [Crizotinib] + CC1=C(C(=CC=C1)Cl)NC(=O)C2=CN=C(S2)NC3=CC(=NC(=N3)C)N4CCN(CC4)CCO [Dasatinib] (first compound max 10 µM, 7x7, partner max 2 µM) | – | 0.908 | – | – | – | – | 0.133 | 0.0779 | – | 0.94 | – | – | 0.957 | 0.481 | – | 0.218 | 0.863 | – | – | 0.255
O=C(c1cc(Cc2n[nH]c(=O)c3ccccc23)ccc1F)N1CCN(C(=O)C2CC2)CC1 [Olaparib] + COc1nnc2ccc(N3CCC(c4ccc(OCCN5CCN(C)C(=O)[C@H]5C)cc4)CC3)nn12 [AZD5153] (first compound max 10 µM, 7x7, partner max 1 µM) | – | 0.684 | – | – | – | – | 0.561 | 0.316 | – | 0.873 | – | – | 0.703 | 0.404 | – | 0.467 | 0.487 | – | – | 0.223
C[C@@H]1COCCN1c1cc(C2([S@](C)(=N)=O)CC2)nc(-c2ccnc3[nH]ccc23)n1 [AZD6738] + Nc1ccn([C@@H]2O[C@H](CO)[C@@H](O)C2(F)F)c(=O)n1 [Gemcitabine] (first compound max 10 µM, 7x7, partner max 0.3 µM) | – | 0.725 | – | – | – | – | 0.792 | 0.529 | – | 0.985 | – | – | 0.97 | 0.543 | – | 0.781 | 0.774 | – | – | 0.411
O=C(c1cc(Cc2n[nH]c(=O)c3ccccc23)ccc1F)N1CCN(C(=O)C2CC2)CC1 [Olaparib] + CC1(C)CCC(CN2CCN(c3ccc(C(=O)NS(=O)(=O)c4ccc(NCC5CCOCC5)c([N+](=O)[O-])c4)c(Oc4cnc5[nH]ccc5c4)c3)CC2)=C(c2ccc(Cl)cc2)C1 [Venetoclax] (first compound max 10 µM, 7x7, partner max 1 µM) | – | 0.118 | – | – | – | – | 0.229 | 0.297 | – | 0.252 | – | – | 0.665 | 0.128 | – | 0.293 | 0.119 | – | – | 0.117
